# Tests used:
# [1] = Evaluation of cardiovascular parameters (blood pressure, heart rate) in anaesthetised rats; format: in vivo; details: 20 or 40 mg/kg injected in the jugular vein, anaesthetised Wistar rats (FIG. 1)
# Protocol: Combretastatin A4, its prodrug ST2494 and our water soluble selected compounds ST2495 and ST2496, diluted at the doses of 20 or 40 mg/kg in saline solution or for combretastatin A4 in 5% DMSO, were injected in the jugular vein of Wistar rats anaesthetised with 55 mg/kg Nembutal. The parameter considered were blood pressure and heart rate.
# cell growth = details: background statement; cited from earlier work
# [2] = system: NCI-H460 human lung cancer; test: Cytotoxicity test (sulforodamine B), NCI-H460; format: cell-based; details: Homo sapiens, NCI-H460, read-out: IC50 ± SE
# Protocol: (§1) The cytotoxic effect of our derivatives was evaluated in series of human and murine cell lines.
# (§2) The following cell lines, purchased from ATCC, were cultured according to the manufacturer's instructions: MeWo human melanoma, NCI-H460 human lung cancer, LoVo human colon adenocarcinoma, PC3 human prostate carcinoma, MES-SA human uterine sarcoma, HCT 116 human colorectal carcinoma, MCF-7 human breast carcinoma.
# (§3) For the cytotoxicity test the cells were seeded at variable densities according to cell type in 96-well plates in normal culture medium (200 μl/well) and incubated for 24 hours at 37° C. On the next day, the study substances were added at scalar concentrations and the cells were incubated for a further 24 hours at 37° C. in a humidified atmosphere containing 5% CO2. At the end of the incubation period the medium containing the substances was removed and three washings with PBS were performed. At the end of the washings 200 μl/well of fresh medium were added and the plates were incubated at 37° C. for a further 48 hours. At the end of this incubation period the culture medium was removed by overturning the plates and 200 μl/well of PBS and 50 μl of 80% cold trichloroacetic acid (TCA) were added. The plates were then incubated in ice. After 1 h the TCA was removed, the plates were washed three times by immersion in distilled water and dried first on blotting paper and then in the oven. 200 μl of 0.4% sulforodamine B in 1% acetic acid were then added to all wells. The plates were incubated at room temperature for a further 30 minutes. The sulforodamine B was removed by overturning, the plates were washed three times by immersion in 1% acetic acid, and then dried first on blotting paper and then in the oven. 200 μl of Tris base 10 mM were then added to all wells and the plates were placed under stirring for at least 20 min. The optical density was measured by spectrophotometric readout at 540 nm.
# (§4) In the same table are reported the IC50 of ST2897, ST2898 and ST2899 on BMEC.
# [3] = system: MES-SA human uterine sarcoma; test: Cytotoxicity test (sulforodamine B), MES-SA; format: cell-based; details: Homo sapiens, MES-SA, read-out: IC50 ± SE
# Protocol: as §1, §2, §3, §4
# [4] = system: Bovine microcirculatory endothelial cells (BMEC); test: Cytotoxicity test (sulforodamine B), BMEC; format: cell-based; details: Bos taurus, Endothelial cell, read-out: IC50 ± SE
# Protocol: as §1
# (§5) Bovine microcirculatory endothelial cells (BMEC), isolated from bovine adrenal glands, were maintained in culture in DMEM containing 20% FBS, 50 μg/ml of bovine brain extract (BBE), 50 units/ml of heparin (SIGMA), 100 units/ml of gentami-cin (SIGMA) and 10 mg/ml of L-glutamine (Hyclone). EA-hy926, an immortalised hybridoma of HUVEC and adenocarcinoma cells, obtained from the University of Bari Department of Biomedical Sciences and Human Oncology, was cultured in DMEM added with 10% FBS and gentamicin.
# as §3, §4
# [5] = system: Human umbilical vein endothelial cells (HUVEC); test: Cytotoxicity test (sulforodamine B), HUVEC; format: cell-based; details: Homo sapiens, read-out: IC50 ± SE
# Protocol: as §1
# Human umbilical vein endothelial cells (HUVEC), from the BioWhittaker company, were maintained in EGM-2 culture medium (BioWhittaker).
# as §3, §4
# [6] = system: EA-hy926, an immortalised hybridoma of HUVEC and adenocarcinoma cells; test: Cytotoxicity test (sulforodamine B), EA-hy926; format: cell-based; details: Homo sapiens, EA.hy 926; EAHY.926; 24 h exposure, 48 h recovery, SRB
# Protocol: as §1, §5
# (§6) For the cytotoxicity test the cells were seeded at variable densities according to cell type in 96-well plates in normal culture medium (200 μl/well) and incubated for 24 hours at 37° C. On the next day, the study substances were added at scalar concentrations and the cells were incubated for a further 24 hours at 37° C. in a humidified atmosphere containing 5% CO2. At the end of the incubation period the medium containing the substances was removed and three washings with PBS were performed. At the end of the washings 200 μl/well of fresh medium were added and the plates were incubated at 37° C. for a further 48 hours. […] The optical density was measured by spectrophotometric readout at 540 nm. […]
# [7] = system: A2780 human ovarian carcinoma line; test: Cytotoxicity test (sulforodamine B), A2780; format: cell-based; details: Homo sapiens, A2780, read-out: IC50 ± SE
# Protocol: as §1
# (§7) The M109 murine lung cancer line, the HT29 human colon adenocarcinoma line, the A2780 human ovarian carcinoma line, obtained from the Milan Tumour Institute, were cultured in RPMI containing 10% FBS and antibiotics.
# as §3, §4
# [8] = system: HCT 116 human colorectal carcinoma; test: Cytotoxicity test (sulforodamine B), HCT 116; format: cell-based; details: Homo sapiens, HCT-116, read-out: IC50 ± SE
# Protocol: as §1, §2, §3, §4
# MeWo human melanoma = test: Cytotoxicity test (sulforodamine B), MeWo; format: cell-based; details: Homo sapiens, read-out: IC50 ± SE
# Protocol: as §1, §2, §3, §4
# [9] = system: PC3 human prostate carcinoma; test: Cytotoxicity test (sulforodamine B), PC3; format: cell-based; details: 24 h exposure, 48 h recovery, SRB
# Protocol: as §1, §2
# as §6, with “hours. At the end of this incubation period the culture medium was removed by overturning the plates and 200 μl/well of PBS and 50 μl of 80% cold trichloroacetic acid (TCA) were added. The plates were then incubated in ice.” for “hours.”
# [10] = system: HT29 human colon adenocarcinoma line; test: Cytotoxicity test (sulforodamine B), HT29; format: cell-based; details: Homo sapiens, HT-29, read-out: IC50 ± SE
# Protocol: as §1, §7, §3, §4
# [11] = system: tubulin rich in microtubule-associated proteins (MAP); test: Tubulin polymerisation inhibition test; format: biochemical; details: vs not treated control; mean of 3 independent determinations; concentration not given
# Protocol: The tubulin polymerisation test in the presence of ST2151 was performed as described by Shiff et al. (Biochemistry, 1981, 20: 3247-3252) with a number of modifications. In brief, tubulin rich in microtubule-associated proteins (MAP) was diluted to the concentration of 3 mg/ml in PEM buffer [100 mM PIPES (pH 6.9), 1 mM EGTA and 1 mM MgCl2] containing 1 mM GTP (GPEM), and maintained in ice. The solution was placed at 37° C. and polymerisation was monitored by measuring absorbance at 340 nm every 25 seconds with a spectrophotometer equipped with an electronic temperature control device (Cobas-Mira Analyzer). After 5 minutes, when the polymerised tubulin had reached a steady state, 5 μM Taxol, 1.35 μM Colcemid, or ST2151 were added and the absorbance measurements were taken for a further 15 min. The IC50 values were determined by non-linear regression analysis using “Prism GraphPad” software. Results were expressed as % inhibition of tubulin polymerization vs not treated control.
# The value indicated in Table 2 is the mean of 3 independent determinations.
# [12] = system: MCF-7 human breast carcinoma; test: Cytotoxicity test (sulforodamine B), MCF-7; format: cell-based; details: Homo sapiens, MCF7, read-out: IC50 ± SE
# Protocol: as §1, §2, §3, §4
# [13] = system: B16/BL6 murine melanoma line; test: Cytotoxicity test (sulforodamine B), B16/BL6; format: cell-based; details: Mus musculus, B16-BL6, read-out: IC50 ± SE
# Protocol: as §1
# The B16/BL6 murine melanoma line, obtained from the M. Negri Institute in Milan, was cultured in DMEM containing 10% FBS and antibiotics.
# as §3, §4
# [14] = system: M109 murine lung cancer line; test: Cytotoxicity test (sulforodamine B), M109; format: cell-based; details: Mus musculus, 24 h exposure, 48 h recovery, SRB
# Protocol: as §1, §7
# as §3, with “200 μl of 0.4% sulforodamine B in 1% acetic acid were then added to all wells. The plates were incubated at room temperature for a further 30 minutes. The sulforodamine B was removed by overturning, the plates were washed three times by immersion in 1% acetic acid, and then dried first on blotting paper and then in the oven. 200 μl of Tris base 10 mM were then added to all wells and the plates were placed under stirring for at least 20 min.” left out, “nm. […]” for “nm.”
# [15] = system: LoVo human colon adenocarcinoma; test: Cytotoxicity test (sulforodamine B), LoVo; format: cell-based; details: 24 h exposure, 48 h recovery, SRB
# Protocol: as §1, §2
# as §6, with “hours. At the end of this incubation period the culture medium was removed by overturning the plates and 200 μl/well of PBS and 50 μl of 80% cold trichloroacetic acid (TCA) were added. The plates were then incubated in ice.” for “hours.”
# [16] = Cancer Res., 62:3408-3416, 2002; cited from earlier work
Compound,blood pressure [1],heart rate [1],concentration inhibiting cell growth (cell growth),IC50 [2] [µM],IC50 [3] [µM],IC50 [4] [µM],IC50 [5] [µM],IC50 [6] [µM],IC50 [7] [µM],IC50 [8] [µM],IC50 (MeWo human melanoma) [µM],IC50 [9] [µM],IC50 [10] [µM],% inhibition of tubulin polymerization [11] [%],IC50 [12] [µM],IC50 [13] [µM],IC50 [14] [µM],IC50 [15] [µM],side effects in Phase I study [16]
"COc1ccc(/C=C\c2cc(OC)c(OC)c(OC)c2)cc1O [Combretastatin A4, Combretastatin A-4, reference compound]",significant increase in blood pressure,progressive decrease of heart rate,of the order of nanomoles,–,–,–,–,–,–,–,–,–,–,–,–,–,–,–,–
"COc1cc(/C=C\c2cc(O)c3ccsc3c2)cc(OC)c1OC [ST2151, Cis-6-[2-(3,4,5-trimethoxy-phenyl)-vinyl]-benzo[b]thiophen-4-ol]",–,–,–,0.074 ± 0.0029,0.086 ± 0.01,0.087 ± 0.001,0.049 ± 0.00064,0.052 ± 0.0049,0.07 ± 0.002,0.084 ± 0.0038,0.068 ± 0.005,0.12 ± 1e-05,0.9 ± 0.065,37.1,0.066 ± 0.0027,0.085 ± 0.0005,0.49 ± 0.03,0.36 ± 1e-05,–
"COc1cc(/C=C\c2cc(O)c3ccoc3c2)cc(OC)c1OC [ST2179, Cis-6-[2-(3,4,5-trimethoxy-phenyl)-vinyl]-benzofuran-4-ol]",–,–,–,0.053 ± 0.0013,0.04 ± 0.004,0.049 ± 0.001,–,0.04 ± 0.0039,0.05 ± 0.002,0.054 ± 0.009,0.071 ± 0.017,0.1 ± 1e-05,0.99 ± 0.04,44.0,0.038 ± 0.003,0.044 ± 0.0038,0.093 ± 0.006,0.49 ± 4e-05,–
COc1ccc(/C=C\c2cc(OC)c(OC)c(OC)c2)cc1OP(=O)(O)O [combretastatin A4-P],–,–,–,–,–,–,–,–,–,–,–,–,–,–,–,–,–,–,"episodes of dose-limiting toxicity, including cases of acute coronary syndrome"

# Source: patent US20060160773A1, “Combretastatin derivatives with cytotoxic action” (priority 2003, published 2006)
